pEC50, pKi: −log10 of the molar value.
Key:
Mu-type opioid receptor = Mu-type opioid receptor (Rattus norvegicus, UniProt P33535); assay: Displacement of [3H]diprenorphine from rat mu opioid receptor expressed in CHO cells; format: cell-based
[1] = target: Delta-type opioid receptor (Mus musculus, UniProt P32300); assay: Displacement of [3H]diprenorphine from mouse delta opioid receptor expressed in CHO cells; format: cell-based
[2] = target: T1, Kappa-type opioid receptor (Homo sapiens, UniProt P41145); assay: Displacement of [3H]diprenorphine from human kappa opioid receptor expressed in CHO cells; format: cell-based
T1 sequence (P41145 whole entry): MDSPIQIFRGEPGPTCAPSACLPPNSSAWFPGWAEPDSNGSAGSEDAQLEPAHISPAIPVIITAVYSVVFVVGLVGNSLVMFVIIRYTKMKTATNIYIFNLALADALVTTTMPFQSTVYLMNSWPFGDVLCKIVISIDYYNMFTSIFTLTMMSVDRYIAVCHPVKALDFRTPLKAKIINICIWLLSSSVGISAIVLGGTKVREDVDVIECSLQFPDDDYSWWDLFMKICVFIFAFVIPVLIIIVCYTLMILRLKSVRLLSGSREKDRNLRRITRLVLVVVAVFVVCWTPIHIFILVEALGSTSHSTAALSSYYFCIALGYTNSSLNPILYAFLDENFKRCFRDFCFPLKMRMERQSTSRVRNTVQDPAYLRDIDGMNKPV

[3] = target: T1, Kappa-type opioid receptor; assay: Displacement of [3H]diprenorphine from human kappa opioid receptor expressed in CHO cells in presence of EGTA; format: cell-based
[4] = target: T1, Kappa-type opioid receptor; assay: Agonist activity at human kappa opioid receptor expressed in CHO cells assessed as increase in […] [35S]GTPgammaS binding; format: functional, cell-based

Sequence of Mu-type opioid receptor (P33535 whole entry): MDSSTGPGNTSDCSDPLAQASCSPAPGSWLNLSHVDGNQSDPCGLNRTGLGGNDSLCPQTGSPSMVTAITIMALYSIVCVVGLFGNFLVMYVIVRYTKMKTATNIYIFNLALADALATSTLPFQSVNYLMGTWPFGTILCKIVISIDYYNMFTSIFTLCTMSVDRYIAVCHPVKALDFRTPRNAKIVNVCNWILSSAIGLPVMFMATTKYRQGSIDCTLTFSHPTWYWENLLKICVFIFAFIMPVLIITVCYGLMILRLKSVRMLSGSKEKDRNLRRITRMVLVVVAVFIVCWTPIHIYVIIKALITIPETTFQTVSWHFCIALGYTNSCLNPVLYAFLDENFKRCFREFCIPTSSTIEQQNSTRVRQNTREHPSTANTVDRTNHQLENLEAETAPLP
Sequence of Delta-type opioid receptor (P32300 whole entry): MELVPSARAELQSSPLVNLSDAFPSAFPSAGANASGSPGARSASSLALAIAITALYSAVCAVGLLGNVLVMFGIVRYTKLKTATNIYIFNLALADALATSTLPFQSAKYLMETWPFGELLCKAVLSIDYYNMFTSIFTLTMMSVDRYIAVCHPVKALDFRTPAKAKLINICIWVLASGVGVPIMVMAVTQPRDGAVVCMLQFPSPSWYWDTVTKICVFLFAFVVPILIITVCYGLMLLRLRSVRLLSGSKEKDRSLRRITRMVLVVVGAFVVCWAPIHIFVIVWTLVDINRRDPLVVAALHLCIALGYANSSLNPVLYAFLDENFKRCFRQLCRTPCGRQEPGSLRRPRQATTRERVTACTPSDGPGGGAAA

COC(=O)[C@@H]1C[C@H](OC(C)=O)C(=O)[C@H]2[C@@]1(C)CC[C@H]1C(=O)O[C@H](c3nc(C)no3)C[C@]21C
< 6.00: pKi (Mu-type opioid receptor) | pKi [1] | pKi [2] | pKi [3] | pEC50 [4]

COC(=O)[C@@H]1C[C@H](OC(C)=O)C(=O)[C@H]2[C@@]1(C)CC[C@H]1C(=O)O[C@H](c3cn(Cc4ccccc4)nn3)C[C@]21C
< 6.00: pKi (Mu-type opioid receptor) | pKi [1] | pKi [2]

COC(=O)[C@@H]1C[C@H](OC(C)=O)C(=O)[C@H]2[C@@]1(C)CC[C@H]1C(=O)O[C@H](c3cn(COC(=O)C(C)(C)C)nn3)C[C@]21C
< 6.00: pKi (Mu-type opioid receptor) | pKi [1] | pKi [2]

COC(=O)[C@@H]1C[C@H](OC(C)=O)C(=O)[C@H]2[C@@]1(C)CC[C@H]1C(=O)O[C@H](c3cn(C)nn3)C[C@]21C
< 6.00: pKi (Mu-type opioid receptor) | pKi [1] | pKi [2]

COC(=O)[C@@H]1C[C@H](OC(C)=O)C(=O)[C@@H]2[C@@]3(C)C[C@@H](c4c[nH]nn4)OC(=O)[C@H]3CC[C@]21C
< 6.00: pKi (Mu-type opioid receptor) | pKi [1] | pKi [2]

COC(=O)[C@@H]1C[C@H](OC(C)=O)C(=O)[C@H]2[C@@]1(C)CC[C@H]1C(=O)O[C@H](c3c[nH]nn3)C[C@]21C
< 6.00: pKi (Mu-type opioid receptor) | pKi [1] | pKi [2]

CCn1cc([C@@H]2C[C@]3(C)[C@H]4C(=O)[C@@H](OC(C)=O)C[C@@H](C(=O)OC)[C@]4(C)CC[C@H]3C(=O)O2)nn1
< 6.00: pKi (Mu-type opioid receptor) | pKi [1] | pKi [2]
